Data as given in PubChem BioAssay (NCI).
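Each compound was tested at five concentrations against cells in 96-well plates for 48 hours. At the TGI there is no net growth.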

What was measured:
Test in all cases: NCI anticancer screen, dose series, 48 h
[1] = system: A549 NSCLC
[2] = system: NCI-H23 lung
[3] = system: KM12 colon
[4] = system: T-47D breast
[5] = system: MALME-3M melanoma
[6] = system: SK-MEL-2 melanoma
[7] = system: COLO 205 colon
[8] = system: SR leukemia
[9] = system: SNB-75 CNS
[10] = system: HOP-62 NSCLC
[11] = system: IGROV1 ovarian
[12] = system: OVCAR-5 ovarian
[13] = system: EKVX NSCLC
[14] = system: SK-MEL-5 melanoma
[15] = system: HT29 colon
[16] = system: HL-60(TB) leukemia
[17] = system: SF-268 CNS
[18] = system: NCI/ADR-RES ovarian
[19] = system: OVCAR-8 ovarian
[20] = system: UACC-62 melanoma

Row | SMILES | TGI [1] [µM] | TGI [2] [µM] | TGI [3] [µM] | TGI [4] [µM] | TGI [5] [µM] | TGI [6] [µM] | TGI [7] [µM] | TGI [8] [µM] | TGI [9] [µM] | TGI [10] [µM] | TGI [11] [µM] | TGI [12] [µM] | TGI [13] [µM] | TGI [14] [µM] | TGI [15] [µM] | TGI [16] [µM] | TGI [17] [µM] | TGI [18] [µM] | TGI [19] [µM] | TGI [20] [µM]
1 | CCOC(=O)CCc1c(C)[nH]c2c(C)c3c([nH]c4ccc(Cl)cc43)c(C)c2c1=O | 23.5 | 61.7 | 87 | 54.3 | 37.1 | 14.4 | 89 | > 100 | 30.9 | 48.4 | 26.2 | 19.1 | 37.6 | > 100 | 18.6 | 22.3 | 76.7 | 54 | 83.8 | –
2 | CC1(C)C(=O)C2(C#N)CCC1C2 (configuration not stated) | > 100 | > 100 | > 100 | > 100 | > 100 | > 100 | > 100 | > 100 | > 100 | > 100 | > 100 | > 100 | > 100 | > 100 | > 100 | > 100 | > 100 | > 100 | > 100 | > 100
3 | O=C1N[C@@H]2c3c(Br)sc(Br)c3C(=O)[C@@H]2N1 | 30 | 17 | 19.4 | 21.5 | 18.3 | 13.7 | 12.1 | 4.72 | 18.4 | 20.6 | 7.16 | 35.1 | 17.1 | 23.9 | 9.01 | 5.36 | 13.8 | > 70.6 | 10.5 | 15.4
4 | COc1nc2c(c(=O)n1C)NC(C(O)C(O)CO)C=N2 (configuration not stated) | > 10 | > 10 | > 10 | > 10 | > 10 | > 10 | > 10 | > 10 | > 10 | > 10 | > 10 | > 10 | > 10 | > 10 | > 10 | > 10 | > 10 | > 10 | > 10 | > 10
5 | CCOC(=O)CC(N1CC1)N1CC1 | > 10 | > 10 | > 10 | > 10 | > 10 | > 10 | > 10 | > 10 | > 10 | > 10 | > 10 | > 10 | > 10 | > 10 | > 10 | > 10 | > 10 | > 10 | – | > 10
6 | CC(OCc1ccccc1)C(NC(=O)C1CSSCC(NC(=O)C(Cc2ccccc2)NC(=O)OCc2ccccc2)C(=O)NC(Cc2ccccc2)C(=O)NC(Cc2cn(C=O)c3ccccc23)C(=O)NC(CCCCNC(=O)OCc2ccccc2)C(=O)NC(C(C)OCc2ccccc2)C(=O)N1)C(N)=O (configuration not stated) | > 100 | > 100 | > 55.5 | > 63.8 | > 90.4 | 28.7 | 10.5 | > 93.4 | > 71.3 | > 100 | > 100 | > 100 | > 100 | > 73.8 | > 100 | 2.89 | > 100 | > 100 | > 100 | > 100
7 | Oc1[nH]c2ccccc2c1N=NC(=S)N1CCCC1 | 13.6 | 34.5 | > 49.5 | 85.1 | 9.82 | 33.2 | 27.5 | 3.65 | 14.1 | 26.2 | 15 | > 82.6 | > 65.3 | 8.5 | > 53.5 | 8.83 | > 58.3 | 6.03 | 13.6 | 18.2
8 | CCOC(=O)C(Cc1cn(S(=O)(=O)c2ccc(C)cc2)cn1)P(=O)(OCC)OCC (configuration not stated) | > 100 | > 100 | > 100 | > 100 | > 100 | > 100 | > 100 | > 100 | > 100 | > 100 | > 100 | > 100 | > 100 | > 100 | > 100 | > 100 | > 100 | > 100 | > 100 | > 100
9 | CC(=O)NNc1nc(C)c(C(/C=C/c2ccc(NC(C)=O)cc2)=N/NS(=O)(=O)c2ccc(C)cc2)s1 | > 100 | > 100 | > 100 | > 100 | > 100 | > 100 | > 100 | > 100 | > 100 | > 100 | > 100 | > 100 | > 100 | > 100 | > 100 | > 100 | > 100 | > 100 | > 100 | > 100
10 | N#CC(c1ccccc1)N(CCc1ccccc1)C(=O)Oc1ccccc1 (configuration not stated) | > 100 | > 100 | > 100 | > 100 | > 100 | > 100 | > 100 | > 100 | 74.7 | > 100 | > 100 | > 100 | > 100 | > 100 | > 100 | > 100 | > 100 | > 100 | > 100 | > 100
11 | COC(=O)c1ccc(NCc2cc(O)ccc2O)cc1O | 30.4 | 27.9 | 15.3 | 37.5 | 34.7 | 37.4 | 33.7 | > 23.8 | 22 | 24.4 | 27.8 | 31 | 27 | 26.4 | 34.4 | 4.21 | 21.8 | 10.8 | 19.8 | 34
12 | CC(=O)O/C=C\OC1CCCC1 | > 100 | > 100 | > 100 | > 100 | > 100 | > 100 | > 100 | > 100 | > 100 | > 100 | > 100 | – | > 100 | > 100 | > 100 | > 100 | > 100 | > 100 | > 100 | > 100
13 | COP(=O)(C(/C=C/c1ccccc1)OC(C)=O)[C@@H]1CCCC[C@H]1N(CC(C)(C)C)C(C)=O (some centres not stated) | 47.3 | 42.5 | > 100 | 32.6 | 33.4 | 29.8 | 27.1 | 36.2 | 22.7 | 42.3 | 24.1 | 78.9 | 57.8 | 27.3 | 28 | 41.3 | 40.8 | 42.2 | 35.6 | 28
14 | CC1C(=O)C23OC[C@@]1(C)C1(O)CC[C@@H](C)[C@]21CC3=O (some centres not stated) | > 100 | > 100 | > 100 | > 100 | > 100 | > 100 | > 100 | > 100 | > 100 | > 100 | > 100 | > 100 | > 100 | > 100 | > 100 | > 100 | > 100 | > 100 | > 100 | > 100
15 | Cc1cc(=O)[nH]c2c3c(ccc12)OC(C)(C)C=C3 | > 100 | > 100 | > 100 | > 100 | > 100 | > 100 | 12.2 | > 100 | 87.9 | > 100 | > 100 | > 66.1 | > 63.7 | > 100 | > 56.4 | > 100 | > 100 | > 100 | > 100 | > 100
16 | CN(C)/C=N/S(=O)(=O)c1nn2c(C=O)c(-c3ccc([N+](=O)[O-])cc3)nc2s1 | > 100 | 49.7 | 42.3 | > 45.4 | 8.72 | 51.3 | > 34.3 | > 43.3 | > 86.9 | > 81.9 | 17.6 | > 79.6 | 58.7 | 17.4 | 4.38 | 3.85 | > 72.9 | > 100 | 47.4 | 23
17 | COc1ccccc1OC(=O)/C=C/c1ccccc1 | > 100 | > 100 | > 100 | > 100 | > 100 | > 100 | > 100 | > 100 | > 100 | > 100 | > 100 | > 100 | > 100 | > 100 | > 100 | > 100 | > 100 | > 100 | > 100 | > 100
18 | CCOC(=O)CCC(NC(=O)c1ccc(Oc2nc3ccccc3nc2C(=O)OCC)cc1)C(=O)OCC (configuration not stated) | > 100 | > 100 | > 100 | > 100 | – | > 100 | > 100 | > 100 | 98.1 | > 100 | > 100 | > 100 | > 100 | > 100 | > 100 | > 100 | > 100 | > 100 | > 100 | > 100
19 | Cc1cc(C)c2c(c1)C(=O)C1(C2)Cc2c(ccc(C)c2C)C1=O (configuration not stated) | > 100 | – | > 100 | > 100 | > 100 | > 100 | > 100 | > 100 | > 100 | – | > 100 | – | > 100 | > 100 | – | > 100 | > 100 | > 100 | > 100 | > 100
